From US9556231B2, “Beta-hairpin peptidomimetics as CXC4 antagonists” (POLYPHOR AG, priority 2011, dated 2017)
Like-named read-outs stand apart in the source and are kept apart here. Bridge positions count the residues as written; N and C are the ends. Square brackets hold non-standard residues; d marks the D form. Peptide text beside a SMILES is read from it. Lys(iPr) = CC(C)NCCCC[C@H](N)C(=O)O; Orn(iPr) = CC(C)NCCC[C@H](N)C(=O)O; Dab = NCC[C@H](N)C(=O)O

Key:
[1] = Cytotoxicity, MTT reduction assay, COS-7 cells; type: cell-based; conditions: African green monkey
Procedure: Namalwa cells (CXCR4 natively expressing non-adherent cells, ATCC CRL-1432) were cultured in RPMI1640 plus 10% FBS, and pen/strept. HELA cells were maintained in RPMI1640 plus 10% FBS, pen/strept and 2 mM L-glutamine. Cos-7 cells were grown in DMEM medium with […] glucose supplemented with 10% FCS, pen/strept and 2 mM L-glutamine. All cell lines were grown at 37° C. at 5% CO2. Cell media, media supplements, PBS-buffer, HEPES, antibiotic/antimycotic, pen/strept, non essential amino acid, L-glutamine, β-mercaptoethanol and sera were purchased from Gibco (Pailsey, UK). All fine chemicals were supplied by Merck (Darmstadt, Germany).
The cytotoxicity of the peptides to HELA cells (Acc57) and COS-7 cells (CRL-1651) was determined using the MTT reduction assay (T. Mossman, J. Immunol. Meth. 1983, 65, 55-63; M. V. Berridge, A. S. Tan, Arch. Biochem. Biophys. 1993, 303, 474-482). Briefly, the method was as follows: 4000 HELA cells/well and 3400 COS-7 cells/well were seeded and grown in 96-well microtiter plates for 24 h at 37° C. at 5% CO2. Thereafter, time zero (Tz) was determined by MTT reduction (see below). The supernatant of the remaining wells was discarded, and fresh medium and compounds in serial dilutions (12.5, 25 and 50 μM, triplicates; 0 μM, blank) were pipetted into the wells. After incubation of the cells for 48 h at 37° C. at 5% CO2 the supernatant was discarded again and 100 μL MTT reagent (0.5 mg/mL in RPMI1640 and DMEM, respectively)/well was added. Following incubation at 37° C. for 2-4 h the media were aspirated and the cells were spiked (100 μL isopropanol/well). The absorbance of the solubilized formazan was measured at 595 nm (OD595peptide). For each concentration averages were calculated from triplicates. The percentage of growth was calculated as follows: (OD595peptide−OD595Tz)/(OD595blank−OD595Tz)×100%. The GI50 (Growth Inhibition) concentrations were calculated for each peptide by using a trend line function for the concentrations (50, 25, 12.5 and 0 μM), the corresponding percentages and the value 50, (=TREND (C50:C0,%50:%0,50).

[2] = Pharmacokinetic study (PK), i.v., CD-1 mice; type: in vivo; conditions: mouse, i.v. 1 mg/kg; for level at 0.083 h / level at 0.25 h / level at 0.5 h / level at 1 h / level at 2 h / level at 3 h / AUC(0-inf) / Cmax / clearance / half-life / Vd / level at 4 h: male, CD-1, in vivo, iv; for level at 0.083 h / level at 0.25 h / level at 0.5 h / level at 1 h / level at 2 h / level at 3 h / level at 4 h: read-out: Calc. Conc. (plasma); for AUC(0-inf) / Cmax / clearance / half-life / Vd: one-compartmental model; for Vd: read-out: Vdis
Procedure: For the compounds of Ex. 1, Ex. 2, Ex. 3, Ex. 4, Ex. 5 and Ex. 6 pharmacokinetic studies after intravenous (i.v.) administration were performed.
30 grams (±20%) male CD-1 mice obtained from Charles River Laboratories Deutschland GmbH were used. The vehicle, phosphate buffered saline, was added to give a final concentration of 0.5 mg/mL of the compound. The volume was 2 mL/kg and the compound was injected to give a final intravenous dose of 1 mg/kg. Approximately 300-400 μL of blood was removed under light isoflurane anesthesia by cardiac puncture at predetermined time intervals (5, 15, 30 min and 1, 2, 3, 4, hours) and added to heparinized tubes. Plasma was removed from pelleted cells upon centrifugation and frozen at −80° C. prior to HPLC-MS analysis.
Aliquots of 50 μL each of mouse plasma of untreated aminals (“blank” mouse plasma) were spiked with known amounts of the compounds Ex. 1, Ex. 2, Ex. 3, Ex. 4, Ex. 5 and Ex. 6 in order to obtain 10 plasma calibration samples for each compound in the range 1-4000 ng/mL. Aliquots of 50 μL each of mouse plasma from treated animals were used as plasma study samples.
All plasma samples were spiked with an appropriate internal standard and extracted with acetonitrile containing 2% formic acid. Supernatants were evaporated to dryness under nitrogen and the remaining solids reconstituted in water/acetonitrile 95/5 (v/v)+0.2% formic acid.
Extracts were then analyzed by reverse-phase chromatography (Acquity BEH C18, 100×2.1 mm, 1.7 μm column, Waters for Ex. 1 and Acquity HSS C18 SB, 100×2.1 mm, 1.8 μm column, Waters for Ex. 2, Ex. 3, Ex. 4, Ex. 5 and Ex. 6), using the following conditions: Ex. 1, mobile phases: (A) water/acetonitrile 95/5 (v/v)+0.1% formic acid, (B) acetonitrile/water 95/5 (v/v)+0.1% formic acid, gradient: 1% (B) 0-0.1 min, 15% (B) 0.1-2.5 min for Ex. 1 and 1% (B) 0-0.1 min, 40% (B) 0.1-2.5 min for Ex. 2, Ex. 3, Ex. 4, Ex. 5 and Ex. 6. The detection and quantification was performed by mass spectrometry, with electrospray interface in positive mode and selective fragmentation of analytes (4000 Q Trap mass spectrometer, AB Sciex).
PK parameters were calculated by WinNonLin™ software version 5.3 (Pharsight-A Certara™ Company, Mountain View, Calif. 94041 USA) using a one-compartmental model analysis. PK parameters were determined by least-square fitting of the model to the experimental data.

[3] = MTT, 48 h, up to 50 μM, read-out: Cytotoxicity Cos-7 Cells GI50

| Compound | GI50 at 48 h [1] | level at 0.083 h [2] | level at 0.25 h [2] | level at 0.5 h [2] | level at 1 h [2] | level at 2 h [2] | level at 3 h [2] | AUC(0-inf) [2] | Cmax [2] | clearance [2] | half-life [2] | Vd [2] | GI50 at 48 h [1, 3] | level at 4 h ([2]; 4 h) | Calc. Conc. (plasma) ([2]; 4 h) |
| --- | --- | --- | --- | --- | --- | --- | --- | --- | --- | --- | --- | --- | --- | --- | --- |
| CC(C)NCCCC[C@@H]1NC(=O)[C@H](CCC(N)=O)NC(=O)[C@H](Cc2ccc(O)cc2)NC(=O)[C@@H]2CSSC[C@H](NC(=O)[C@H](Cc3ccc(O)cc3)NC(=O)[C@H](Cc3c[nH]cn3)NC(=O)[C@H](Cc3ccc(O)cc3)NC(=O)[C@@H]3CCCN3C(=O)[C@H]3CCCN3C1=O)C(=O)N[C@@H](CO)C(=O)N[C@@H](C)C(=O)N1CCC[C@@H]1C(=O)N[C@@H](CCCNC(C)C)C(=O)N[C@@H](CCCNC(=N)N)C(=O)N[C@@H](Cc1ccc(O)cc1)C(=O)N2 [Ex. 1, cyclo(-Tyr^1-His^2-Tyr^3-Cys^4-Ser^5-Ala^6-^DPro^7-Orn(iPr)^8-Arg^9-Tyr^10-Cys^11-Tyr^12-Gln^13-Lys(iPr)^14-^DPro^15-Pro^16-) disulfide bond between Cys^4 and Cys^11] (cyclo(YHYCSA[dP][Orn(iPr)]RYCYQ[Lys(iPr)][dP]P); disulfide 4-11) | > 50 µM | 1720 ng/mL | 989 ng/mL | 947 ng/mL | 373 ng/mL | 129 ng/mL | 15 ng/mL | 1150 ng·h/mL | 1830 ng/mL | 14.5 mL/min/kg | 24 min | 0.547 L/kg | – | – | – |
| CC(C)NCCCC[C@@H]1NC(=O)[C@H](CCC(N)=O)NC(=O)[C@H](Cc2ccc(O)cc2)NC(=O)[C@@H]2CSSC[C@H](NC(=O)[C@H](C)NC(=O)[C@H](Cc3c[nH]cn3)NC(=O)[C@H](Cc3ccc(O)cc3)NC(=O)[C@@H]3CCCN3C(=O)[C@H]3CCCN3C1=O)C(=O)N[C@@H](CO)C(=O)N[C@@H](C)C(=O)N[C@H](Cc1ccc(O)cc1)C(=O)N[C@@H](CCN)C(=O)N[C@@H](CCCNC(=N)N)C(=O)N[C@@H](Cc1ccc(O)cc1)C(=O)N2 [Ex. 3, cyclo(-Tyr^1-His^2-Ala^3-Cys^4-Ser^5-Ala^6-^DTyr^7-Dab^8-Arg^9-Tyr^10-Cys^11-Tyr^12-Gln^13-Lys(iPr)^14-^DPro^15-Pro^16-), disulfide bond between Cys^4 and Cys^11] (cyclo(YHACSA[dY][Dab]RYCYQ[Lys(iPr)][dP]P); disulfide 4-11) | – | 1170 ng/mL | 999 ng/mL | 442 ng/mL | 402 ng/mL | 136 ng/mL | 26 ng/mL | 898 ng·h/mL | 1310 ng/mL | 18.6 mL/min/kg | 30 min | 0.762 L/kg | > 50 µM | 12 ng/mL | – |
| COc1ccc(C[C@H]2NC(=O)[C@H](C)NC(=O)[C@H](CO)NC(=O)[C@@H]3CSSC[C@H](NC(=O)[C@H](Cc4ccc(O)cc4)NC(=O)[C@H](CCCNC(=N)N)NC(=O)[C@H](CCCNC(C)C)NC2=O)C(=O)N[C@@H](Cc2ccc(O)cc2)C(=O)N[C@@H](CCC(N)=O)C(=O)N[C@@H](CCCCNC(C)C)C(=O)N2CCC[C@@H]2C(=O)N2CCC[C@H]2C(=O)N[C@@H](Cc2ccc(O)cc2)C(=O)N[C@@H](Cc2c[nH]cn2)C(=O)N[C@@H](C)C(=O)N3)cc1 [Ex. 4, cyclo(-Tyr^1-His^2-Ala^3-Cys^4-Ser^5-Ala^6-^DTyr(Me)^7-Orn(iPr)^8-Arg^9-Tyr^10-Cys^11-Tyr^12-Gln^13-Lys(iPr)^14-^DPro^15-Pro^16-), disulfide bond between Cys^4 and Cys^11] (cyclo(YHACSA[dY](Me)[Orn(iPr)]RYCYQ[Lys(iPr)][dP]P); disulfide 4-11) | > 50 µM | 1620 ng/mL | 869 ng/mL | 775 ng/mL | 504 ng/mL | 159 ng/mL | 25 ng/mL | 1340 ng·h/mL | 1620 ng/mL | 12.4 mL/min/kg | 36 min | 0.607 L/kg | – | 13 ng/mL | – |
| CC(C)NCCCC[C@@H]1NC(=O)[C@H](CCC(N)=O)NC(=O)[C@H](Cc2ccc(O)cc2)NC(=O)[C@@H]2CSSC[C@H](NC(=O)[C@H](Cc3ccc(O)cc3)NC(=O)[C@H](Cc3c[nH]cn3)NC(=O)[C@H](Cc3ccc(O)cc3)NC(=O)[C@@H]3CCCN3C(=O)[C@H]3CCCN3C1=O)C(=O)N[C@@H](CO)C(=O)N[C@@H](C)C(=O)N[C@H](Cc1ccc(O)cc1)C(=O)N[C@@H](CCCNC(C)C)C(=O)N[C@@H](CCCNC(=N)N)C(=O)N[C@@H](Cc1ccc(O)cc1)C(=O)N2 [Ex. 5, cyclo(-Tyr^1-His^2-Tyr^3-Cys^4-Ser^5-Ala^6-^DTyr^7-Orn(iPr)^8-Arg^9-Tyr^10-Cys^11-Tyr^12-Gln^13-Lys(iPr)^14-^DPro^15-Pro^16-), disulfide bond between Cys^4 and Cys^11] (cyclo(YHYCSA[dY][Orn(iPr)]RYCYQ[Lys(iPr)][dP]P); disulfide 4-11) | – | 1310 ng/mL | 984 ng/mL | 350 ng/mL | 503 ng/mL | 150 ng/mL | 49 ng/mL | 1200 ng·h/mL | 1310 ng/mL | 13.9 mL/min/kg | 54 min | 1.04 L/kg | > 50 µM | 33 ng/mL | – |
| COc1ccc(C[C@@H]2NC(=O)[C@H](Cc3c[nH]cn3)NC(=O)[C@H](Cc3ccc(O)cc3)NC(=O)[C@@H]3CCCN3C(=O)[C@H]3CCCN3C(=O)[C@H](CCCCNC(C)C)NC(=O)[C@H](CCC(N)=O)NC(=O)[C@H](Cc3ccc(O)cc3)NC(=O)[C@@H]3CSSC[C@H](NC2=O)C(=O)N[C@@H](CO)C(=O)N[C@@H](C)C(=O)N[C@H](Cc2ccc(OC)cc2)C(=O)N[C@@H](CCCNC(C)C)C(=O)N[C@@H](CCCNC(=N)N)C(=O)N[C@@H](Cc2ccc(O)cc2)C(=O)N3)cc1 [Ex. 6, cyclo(-Tyr^1-His^2-Tyr(Me)^3-Cys^4-Ser^5-Ala^6-^DTyr(Me)^7-Orn(iPr)^8-Arg^9-Tyr^10-Cys^11-Tyr^12-Gln^13-Lys(iPr)^14-^DPro^15-Pro^16-), disulfide bond between Cys^4 and Cys^11] (cyclo(YHY(Me)CSA[dY](Me)[Orn(iPr)]RYCYQ[Lys(iPr)][dP]P); disulfide 4-11) | – | 686 ng/mL | 435 ng/mL | 215 ng/mL | 75 ng/mL | 36 ng/mL | 13 ng/mL | 409 ng·h/mL | 686 ng/mL | 40.8 mL/min/kg | 48 min | 2.98 L/kg | > 50 µM | – | 7 ng/mL |
